Experimental data: patent publication US20010056184A1, “Pipecolinic acid derivatives, method of manufacturing the same and therapeutic agents containing these compounds” (priority 2000, published 2001)

What was measured:
Assay type in all cases: biochemical
MMP-2 (gelatinase A) = biological target: T1, MMP-2 (gelatinase A) (Homo sapiens, UniProt P08253); assay: MMP-2 (gelatinase A) inhibitory activities, fluorogenic substrate enzyme assay; conditions: 42° C., 2 h, substrate 10 μM
T1 construct: made in house; host or cells: COS-1 cells (secreted into culture medium)
T1 sequence (P08253 110-660): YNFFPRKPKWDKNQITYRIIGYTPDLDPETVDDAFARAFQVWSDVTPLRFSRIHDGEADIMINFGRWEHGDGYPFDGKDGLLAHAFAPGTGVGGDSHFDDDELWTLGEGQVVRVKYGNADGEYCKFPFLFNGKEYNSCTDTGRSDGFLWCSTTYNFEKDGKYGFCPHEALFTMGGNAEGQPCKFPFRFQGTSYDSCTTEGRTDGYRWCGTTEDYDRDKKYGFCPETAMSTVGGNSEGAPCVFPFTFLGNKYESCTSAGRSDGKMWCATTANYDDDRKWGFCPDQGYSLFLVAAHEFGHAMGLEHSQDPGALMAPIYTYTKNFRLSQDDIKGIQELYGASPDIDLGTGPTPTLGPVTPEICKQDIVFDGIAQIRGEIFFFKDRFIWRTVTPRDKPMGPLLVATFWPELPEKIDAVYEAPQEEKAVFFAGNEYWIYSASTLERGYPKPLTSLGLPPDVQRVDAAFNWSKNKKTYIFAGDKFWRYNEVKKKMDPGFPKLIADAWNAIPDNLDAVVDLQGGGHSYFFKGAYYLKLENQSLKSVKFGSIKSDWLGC
Experimental: (§1) Examination 2: MMP-2 (gelatinase A) and MMP-9 (gelatinase B) inhibitory activities.
(§2) Pro MMP-2 was obtained from culture medium separated from human pro-MMP-2 cDNA tranfected COS-1 cells. Pro MMP-2 activated by 1 mM (4-aminophenyl) mercury acetic acid and MMP-9, derived human fibrosarcome (Yagai Co. Ltd.), were used as enzyme respectively. Inhibition of both enzyme activities were estimated by enzyme assay using MOCAc-Pro-Leu-Gly-Leu-A2pr(Dnp)-Ala-Arg-NH2 (Peptide Research Center, 3163-v) as substrate. Thus, MMP-2 or MMP-9 (0.01 U/ml), test compound (several concentrations), and the substrate (10 μM) were incubated in 50 mM Tris - HCl buffer (pH 7.4) containing 0.2M NaCl, 10 mM CaCl2, 0.02% NaN3, and 0.05% Brij 35 at 42° C. for 2 h (MMP-2), 3 h (MMP-9) respectively. Inhibition of degradation of substrate in the presence of compound was determined by comparison with the degradation of substrate in the absence of compound, and concentration of 50% inhibition (IC50 value) was calculated.

Δ MT1-MMP (Δ MMP-14) = biological target: T2, Δ MT1-MMP (Δ MMP-14) (Homo sapiens, UniProt P50281); assay: Δ MT1-MMP (Δ MMP-14) inhibitory activities, fluorogenic substrate enzyme assay; conditions: 37° C., 30 min, substrate 10 μM; read-out: ΔMMP-14 IC50
T2 construct: ProMT1-MMP cDNA encoded extracellular domain of pro Δ MT1-MMP was tranfected E. coli BL21DE3; made in house; host or cells: E. coli BL21DE3 (inclusion bodies, 8M urea, ion exchange)
From the text: Examination 3: Δ MT1-MMP (Δ MMP-14) inhibitory activities.
ProMT1-MMP cDNA encoded extracellular domain of pro Δ MT1-MMP was tranfected E. coli BL21DE3, pro Δ MT1-MMP collected as inclusion body was solved using 8M urea, and it was pulified by ion exchenge column chlomatography. Inhibition of enzyme activities were estimated by enzyme assay using activated Δ MT1-MMP, obtained from activation of pro Δ MT1-MMP by 10 μ/ml tripsine, and MOCAc-Pro-Leu-Gly-Leu-A2pr(Dnp)-Ala-Arg-NH2 (Peptide Research Center, 3163-v) as substrate. Thus, Δ MT1-MMP, test compound (several concentrations), and the substrate (10 μM) were incubated in 50 mM Tris - HCl buffer (pH 7.4) containing 0.2M NaCl, 10 mM CaCl2, 0.02% NaN3, 0.05% Brij 35, and 10 μM leuipeputine at 37° C. for 30 min. The reaction was stopped by adding of 4 volumes of sodium acetate buffer (pH 4.0), and the degradation of substrate was calculated by measurement with a fluorescence intensity (λ ex 328 nm, λ em 393 nm). Inhibition of degradation of substrate in the presence of compound was determined by comparison with the degradation of substrate in the absence of compound, and concentration of 50% inhibition (IC50 value) was calculated.

[1] = biological target: T3, human fibroblasts derived MMP-1 (type I collagenase) (Homo sapiens, UniProt P03956); assay: MMP-1 (type I collagenase) inhibitory activities, fluorogenic substrate enzyme assay; conditions: for inhibition at 10 µM: at 10^−5M, NE means no effect, read-out: MMP-1 inhibition percent; for IC50: 37° C., 4 h, substrate 10 μM
T3 construct: human fibroblasts derived MMP-1 (Yagai Co. Ltd.) as enzyme; purchased Yagai Co. Ltd; host or cells: human fibroblasts
T3 sequence (P03956 100-469): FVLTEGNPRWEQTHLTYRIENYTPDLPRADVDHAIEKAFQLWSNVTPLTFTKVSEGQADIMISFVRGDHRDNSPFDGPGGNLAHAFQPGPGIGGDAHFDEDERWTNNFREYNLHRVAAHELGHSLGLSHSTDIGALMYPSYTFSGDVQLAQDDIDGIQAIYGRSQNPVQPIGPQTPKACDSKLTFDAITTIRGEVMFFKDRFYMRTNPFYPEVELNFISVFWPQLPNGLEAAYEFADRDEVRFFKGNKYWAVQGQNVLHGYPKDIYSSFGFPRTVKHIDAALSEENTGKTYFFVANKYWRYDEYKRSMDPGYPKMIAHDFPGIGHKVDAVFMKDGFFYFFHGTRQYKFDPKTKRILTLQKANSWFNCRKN
Experimental: Examination 1: MMP-1 (type I collagenase) inhibitory activities.
Inhibitory activities of MMP-1 (type I collagenase) activities were estimated by enzyme assay using human fibroblasts derived MMP-1 (Yagai Co. Ltd.) as enzyme, and MOCAc-Pro-Leu-Gly-Leu-A2pr(Dnp)-Ala-Arg-NH2 (Peptide Research Center, 3163-v) as substrate. Thus, MMP-1 (0.01 U/ml), test compound (10^−10˜10^−5 M), and the substrate (10 μM) were incubated in 50 mM Tris-HCl buffer (pH 7.4) containing 0.2M NaCl, 10 mM CaCl2, 0.02% NaN3, and 0.05% Brij 35 at 37° C. for 4 h. The reaction was stopped by adding of 4 volumes of sodium acetate buffer (pH 4.0), and the degradation of substrate was calculated by measurement with a fluorescence intensity (λ ex 328 nm, λ em 393 nm). Inhibition of degradation of substrate in the presence of compound was determined by comparison with the degradation percent of substrate in the absence of compound, and concentration of 50% inhibition (IC50 value) was calculated.

MMP-9 (gelatinase B) = biological target: T4, MMP-9 (gelatinase B) (Homo sapiens, UniProt P14780); assay: MMP-9 (gelatinase B) inhibitory activities, fluorogenic substrate enzyme assay; conditions: for IC50: 42° C., 3 h, substrate 10 μM
T4 construct: MMP-9, derived human fibrosarcome (Yagai Co. Ltd.), were used as enzyme respectively; purchased Yagai Co. Ltd; host or cells: human fibrosarcoma
Experimental: as §1, §2

T4 sequence (P14780 94-707): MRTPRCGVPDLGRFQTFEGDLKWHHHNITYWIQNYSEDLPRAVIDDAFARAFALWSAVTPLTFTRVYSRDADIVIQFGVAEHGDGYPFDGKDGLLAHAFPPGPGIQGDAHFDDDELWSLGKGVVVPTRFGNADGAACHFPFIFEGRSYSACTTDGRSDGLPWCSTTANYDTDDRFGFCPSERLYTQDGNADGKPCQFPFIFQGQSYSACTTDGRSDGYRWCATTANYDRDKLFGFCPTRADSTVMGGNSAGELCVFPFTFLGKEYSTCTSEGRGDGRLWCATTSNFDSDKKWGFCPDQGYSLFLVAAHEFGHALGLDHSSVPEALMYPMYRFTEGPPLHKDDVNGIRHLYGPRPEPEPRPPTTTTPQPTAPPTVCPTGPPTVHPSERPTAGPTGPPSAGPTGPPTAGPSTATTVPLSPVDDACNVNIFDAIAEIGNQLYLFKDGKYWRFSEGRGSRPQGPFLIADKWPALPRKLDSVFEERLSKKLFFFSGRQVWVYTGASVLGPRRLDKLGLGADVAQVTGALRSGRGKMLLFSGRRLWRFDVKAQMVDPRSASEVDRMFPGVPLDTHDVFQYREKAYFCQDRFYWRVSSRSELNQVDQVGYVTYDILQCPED

| SMILES | IC50 (MMP-2 (gelatinase A)) | IC50 (Δ MT1-MMP (Δ MMP-14)) | inhibition at 10 µM [1] | IC50 (MMP-9 (gelatinase B)) | IC50 [1] | inhibition at 10 µM (MMP-9 (gelatinase B); at 10^−5M, read-out: MMP-9 inhibition percent) |
| --- | --- | --- | --- | --- | --- | --- |
| O=C(N[C@@H]1CCN(S(=O)(=O)c2ccc(-c3ccc(Cl)cc3)cc2)[C@@H](C(=O)NO)C1)c1ccccn1 [Compound 74, (2R, 4R)-1-[4-(4-Chlorophenyl)benzenesulfonyl]-2-hydroxyaminocarbonyl-4-(2-pyridinecarbonylamino)-piperidine] | 0.0052 µM | 0.074 µM | 48.9% | 0.013 µM | – | – |
| COc1ccc(C(=O)N[C@@H]2CCN(S(=O)(=O)c3cccs3)[C@@H](C(=O)NO)C2)cc1 [Compound 50, (2R, 4R)-2-Hydroxyaminocarbonyl-4-(4-methoxybenzoylamino)-1-(2-thiophenesulfonyl)-piperidine] | 0.073 µM | 0.035 µM | – | 0.044 µM | 8.4 µM | – |
| COc1ccc(-c2ccc(S(=O)(=O)N3CC[C@H](NC(C)=O)C[C@@H]3C(=O)NO)cc2)cc1 [Compound 82, (2R, 4S)-4-Acetylamino-2-hydroxyaminocarbonyl-1-[4-(4-methoxyphenyl)benzenesulfonyl]-piperidine] | 0.74 µM | 1.3 µM | 0% | 0.44 µM | – | – |
| COc1ccc(S(=O)(=O)N2CC[C@H](NC(C)=O)C[C@H]2C(=O)NO)cc1 [Compound 81, (2S, 4S)-4-Acetylamino-2-hydroxyaminocarbonyl-1-(4-methoxybenzenesulfonyl)-piperidine] | 0.22 µM | 0.089 µM | 37.3% | 0.39 µM | – | – |
| COc1ccc(-c2ccccc2S(=O)(=O)N2CC[C@@H](NC(=O)CCC(C)C)C[C@@H]2C(=O)NO)cc1 [Compound 54, (2R, 4R)-2-Hydroxyaminocarbonyl-1-[2-(4-methoxyphenyl)benzenesulfonyl]-4-(4-methylpentanoylamino)-piperidine] | 0.38 µM | 0.2 µM | 45.8% | 1.8 µM | – | – |
| CC(C)CCC(=O)N[C@@H]1CCN(S(=O)(=O)c2ccc(-c3ccc([N+](=O)[O-])cc3)cc2)[C@@H](C(=O)NO)C1 [Compound 67, (2R, 4R)-2-Hydroxyaminocarbonyl-4-(4-methylpentanoylamino)-1-[4-(4-nitrophenyl)benzenesulfonyl]-piperidine] | 0.022 µM | 1.5 µM | – | 0.036 µM | 1.2 µM | – |
| COc1ccc(S(=O)(=O)N2CC[C@H](NC(=O)CCC(C)C)C[C@H]2C(=O)NO)cc1 [Compound 79, (2S, 4S)-2-Hydroxyaminocarbonyl-1-(4-methoxybenzenesulfonyl)-4-(4-methylpentanoylamino)-piperidine] | 7.6 µM | 5 µM | 0% | – | – | 23.3% |
| CC(=O)N[C@@H]1CCN(S(=O)(=O)c2ccc(-c3ccc(O)cc3)cc2)[C@@H](C(=O)NO)C1 [Compound 65, (2R, 4R)-4-Acetylamino-2-hydroxyaminocarbonyl-1-[4-(4-hydroxyphenyl)benzenesulfonyl]-piperidine] | 0.0048 µM | 0.023 µM | – | 0.051 µM | 0.87 µM | – |
| CC(C)CCC(=O)N[C@@H]1CCN(S(=O)(=O)c2cccc(-c3ccc(O)cc3)c2)[C@@H](C(=O)NO)C1 [Compound 53, (2R, 4R)-2-Hydroxyaminocarbonyl-1-[3-(4-hydroxyphenyl)benzenesulfonyl]-4-(4-methylpentanoylamino)-piperidine] | 0.96 µM | 2 µM | 53% | 6.9 µM | – | – |

These reach a lower IC50 (MMP-2 (gelatinase A)). Values come first.

| IC50 (MMP-2 (gelatinase A)) | IC50 (Δ MT1-MMP (Δ MMP-14)) | inhibition at 10 µM [1] | IC50 (MMP-9 (gelatinase B)) | IC50 [1] | inhibition at 10 µM (MMP-9 (gelatinase B); at 10^−5M, read-out: MMP-9 inhibition percent) | SMILES |
| --- | --- | --- | --- | --- | --- | --- |
| 0.0017 µM | 0.016 µM | 45.3% | 0.0014 µM | – | – | COc1ccc(S(=O)(=O)N2CC[C@@H](NC(=O)CCC(C)C)C[C@@H]2C(=O)NO)cc1 [Compound 45, (2R, 4R)-2-Hydroxyaminocarbonyl-1-(4-methoxybenzenesulfonyl)-4-(4-methylpentanoylamino)-piperidine] |
| 0.0015 µM | 0.0043 µM | – | 0.00088 µM | 7.6 µM | – | COc1ccc(OCCCCC(=O)N[C@@H]2CCN(S(=O)(=O)c3ccc(OC)cc3)[C@@H](C(=O)NO)C2)cc1 [Compound 46, (2R, 4R)-2-Hydroxyaminocarbonyl-1-(4-methoxybenzenesulfonyl)-4-[5-(4-methoxyphenoxy)pentanoylamino]-piperidine] |
| 0.00055 µM | 0.31 µM | 35.5% | 0.0004 µM | – | – | COc1ccc(C(=O)N[C@@H]2CCN(S(=O)(=O)c3ccc(-c4ccc(OC)cc4)cc3)[C@@H](C(=O)NO)C2)cc1 [Compound 48, (2R, 4R)-2-Hydroxyaminocarbonyl-4-(4-methoxybenzoylamino)-1-[4-(4-methoxyphenyl)benzenesulfonyl]-piperidine] |
| 0.00049 µM | 0.016 µM | – | 0.00036 µM | 1.3 µM | – | COc1ccc(-c2ccc(S(=O)(=O)N3CC[C@@H](NCc4ccccc4)C[C@@H]3C(=O)NO)cc2)cc1 [Compound 56, (2R, 4R)-4-Benzylamino-2-hydroxyaminocarbonyl-1-[4-(4-methoxyphenyl)benzenesulfonyl]-piperidine] |
| 0.00025 µM | 0.13 µM | – | 0.00026 µM | 2.6 µM | – | COc1ccc(-c2ccc(S(=O)(=O)N3CC[C@@H](NC(=O)CCC(C)C)C[C@@H]3C(=O)NO)cc2)cc1 [Compound 49, (2R, 4R)-2-Hydroxyaminocarbonyl-1-[4-(4-methoxyphenyl)benzenesulfonyl]-4-(4-methylpentanoylamino)-piperidine] |
